Laboratory results as given in patent US11077050B2, “Formulation for parenteral administration” (MERCK SHARP & DOHME CORP., priority 2017, dated 2021).

Experiment: pKa of doravirine
Format: physicochemical

- pKa: 9.47
SMILES: Cn1c(Cn2ccc(C(F)(F)F)c(Oc3cc(Cl)cc(C#N)c3)c2=O)n[nH]c1=O [Doravirine]
